Values after ≈ are worked out from the molar mass of the structure shown.
What was measured:
[1] = Cytotoxicity against human HepG2 cells assessed as reduction in cell viability for 24 hrs by Celltiter-Glo assay; assay type: toxicity, cell-based
Acinetobacter baumannii = test: Antibacterial activity against Acinetobacter baumannii NCTC 13420 assessed as bacterial growth inhibition by CLSI protocol based assay; assay type: functional
Klebsiella pneumoniae = test: Antibacterial activity against Klebsiella pneumoniae ATCC 700603 assessed as bacterial growth inhibition by CLSI protocol based assay; assay type: functional
Pseudomonas aeruginosa = test: Antibacterial activity against Pseudomonas aeruginosa ATCC 27853 assessed as bacterial growth inhibition by CLSI protocol based assay; assay type: functional
Escherichia coli [2] = test: Antibacterial activity against Escherichia coli W4573 assessed as bacterial growth inhibition by CLSI protocol based assay; assay type: functional
Escherichia coli [3] = test: Antibacterial activity against Escherichia coli N43 assessed as bacterial growth inhibition by CLSI protocol based assay; assay type: functional
[4] = molecular target: Voltage-gated inwardly rectifying potassium channel KCNH2 (Homo sapiens, UniProt Q12809); test: Inhibition of human ERG by Ionworks electrophysiology assay; assay type: toxicity
[5] = Lipophilicity, logD of the compound by shake flask assay; assay type: physicochemical; settings: octanol/water
Staphylococcus aureus = test: Antibacterial activity against Staphylococcus aureus ATCC 29213 assessed as bacterial growth inhibition by CLSI protocol based assay; assay type: functional
DNA gyrase = DNA gyrase (Escherichia coli, UniProt P0AES4+P0AES6); test: Inhibition of Escherichia coli DNA gyrase supercoiling activity; assay type: protein-complex assay
[6] = Inhibition of Escherichia coli topoisomerase 4 assessed as reduction in decatenation
[7] = Intrinsic clearance in mouse liver microsomes in presence of NADPH and measured upto 45 mins; assay type: ADME, Microsome; settings: read-out: CLH
[8] = Intrinsic clearance in human liver microsomes in presence of NADPH and measured upto 45 mins; assay type: ADME, Microsome; settings: read-out: CLH
[9] = Plasma protein binding in mouse assessed as free fraction by equilibrium dialysis assay; assay type: ADME, cell-free
[10] = molecular target: DNA topoisomerase 2-alpha (Homo sapiens, UniProt P11388); test: Inhibition of human topoisomerase 2 assessed as reduction in decatenation
hERG (KCNH2) = hERG (KCNH2) (Homo sapiens, UniProt Q12809); test: Inhibition of human ERG at 100 uM by Ionworks electrophysiology assay; assay type: toxicity
[11] = Kinetic solubility of compound; assay type: physicochemical; settings: read-out: Kinetic_solubility
Escherichia coli [12] = test: Resistance development in Escherichia coli ATCC25922 assessed as spontaneous resistance frequency at 4 times MIC by resistance development assay; assay type: functional
Escherichia coli [13] = test: Antibacterial activity against Escherichia coli ATCC25922 assessed as bacterial growth inhibition by CLSI protocol based assay; assay type: functional
[14] = Protein binding in mouse plasma by equilibrium dialysis assay; assay type: ADME, cell-free; settings: read-out: PPB (converted)
[15] = Protein binding in human plasma by equilibrium dialysis assay; assay type: ADME, cell-free; settings: read-out: PPB (converted)

Chain of DNA topoisomerase 2-alpha (P11388 whole entry): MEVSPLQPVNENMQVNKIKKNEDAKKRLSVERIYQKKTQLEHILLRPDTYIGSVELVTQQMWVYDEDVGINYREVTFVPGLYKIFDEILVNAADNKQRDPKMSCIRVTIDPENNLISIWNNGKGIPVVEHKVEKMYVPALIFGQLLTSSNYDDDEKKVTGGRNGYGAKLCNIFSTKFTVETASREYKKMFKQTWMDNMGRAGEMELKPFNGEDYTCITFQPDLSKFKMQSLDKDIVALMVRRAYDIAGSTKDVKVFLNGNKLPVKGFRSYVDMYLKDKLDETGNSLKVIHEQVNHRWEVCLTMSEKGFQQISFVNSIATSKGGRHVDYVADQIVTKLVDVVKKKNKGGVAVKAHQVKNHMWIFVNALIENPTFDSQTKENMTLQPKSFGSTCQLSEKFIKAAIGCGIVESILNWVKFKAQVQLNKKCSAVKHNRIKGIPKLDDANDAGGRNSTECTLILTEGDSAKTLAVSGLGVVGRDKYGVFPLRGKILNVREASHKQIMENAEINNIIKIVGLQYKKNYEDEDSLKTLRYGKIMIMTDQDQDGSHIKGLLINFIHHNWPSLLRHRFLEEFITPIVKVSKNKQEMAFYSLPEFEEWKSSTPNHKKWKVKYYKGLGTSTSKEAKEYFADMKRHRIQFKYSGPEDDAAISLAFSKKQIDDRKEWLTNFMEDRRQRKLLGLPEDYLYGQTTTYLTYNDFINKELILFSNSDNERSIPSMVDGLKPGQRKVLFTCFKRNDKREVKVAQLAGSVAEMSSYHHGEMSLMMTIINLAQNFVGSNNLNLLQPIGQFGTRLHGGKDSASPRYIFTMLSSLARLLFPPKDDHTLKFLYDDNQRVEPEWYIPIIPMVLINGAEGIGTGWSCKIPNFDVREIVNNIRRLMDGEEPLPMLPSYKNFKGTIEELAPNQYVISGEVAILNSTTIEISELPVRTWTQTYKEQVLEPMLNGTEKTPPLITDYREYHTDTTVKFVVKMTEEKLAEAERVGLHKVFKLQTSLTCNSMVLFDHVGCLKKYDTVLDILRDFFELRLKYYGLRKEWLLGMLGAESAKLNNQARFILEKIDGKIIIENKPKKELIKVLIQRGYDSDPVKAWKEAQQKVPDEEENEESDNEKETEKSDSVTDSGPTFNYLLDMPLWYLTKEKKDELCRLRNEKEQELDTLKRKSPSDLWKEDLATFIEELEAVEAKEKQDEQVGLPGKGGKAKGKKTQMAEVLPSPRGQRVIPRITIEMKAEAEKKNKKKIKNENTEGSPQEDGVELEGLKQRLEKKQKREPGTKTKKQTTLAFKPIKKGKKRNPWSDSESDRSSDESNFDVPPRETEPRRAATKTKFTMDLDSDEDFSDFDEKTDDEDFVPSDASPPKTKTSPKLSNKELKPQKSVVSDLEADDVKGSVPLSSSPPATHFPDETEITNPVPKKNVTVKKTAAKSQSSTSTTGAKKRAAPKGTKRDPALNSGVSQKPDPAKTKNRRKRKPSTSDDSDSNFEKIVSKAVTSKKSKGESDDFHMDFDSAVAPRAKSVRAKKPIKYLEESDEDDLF
Chain of Voltage-gated inwardly rectifying potassium channel KCNH2 (Q12809 whole entry): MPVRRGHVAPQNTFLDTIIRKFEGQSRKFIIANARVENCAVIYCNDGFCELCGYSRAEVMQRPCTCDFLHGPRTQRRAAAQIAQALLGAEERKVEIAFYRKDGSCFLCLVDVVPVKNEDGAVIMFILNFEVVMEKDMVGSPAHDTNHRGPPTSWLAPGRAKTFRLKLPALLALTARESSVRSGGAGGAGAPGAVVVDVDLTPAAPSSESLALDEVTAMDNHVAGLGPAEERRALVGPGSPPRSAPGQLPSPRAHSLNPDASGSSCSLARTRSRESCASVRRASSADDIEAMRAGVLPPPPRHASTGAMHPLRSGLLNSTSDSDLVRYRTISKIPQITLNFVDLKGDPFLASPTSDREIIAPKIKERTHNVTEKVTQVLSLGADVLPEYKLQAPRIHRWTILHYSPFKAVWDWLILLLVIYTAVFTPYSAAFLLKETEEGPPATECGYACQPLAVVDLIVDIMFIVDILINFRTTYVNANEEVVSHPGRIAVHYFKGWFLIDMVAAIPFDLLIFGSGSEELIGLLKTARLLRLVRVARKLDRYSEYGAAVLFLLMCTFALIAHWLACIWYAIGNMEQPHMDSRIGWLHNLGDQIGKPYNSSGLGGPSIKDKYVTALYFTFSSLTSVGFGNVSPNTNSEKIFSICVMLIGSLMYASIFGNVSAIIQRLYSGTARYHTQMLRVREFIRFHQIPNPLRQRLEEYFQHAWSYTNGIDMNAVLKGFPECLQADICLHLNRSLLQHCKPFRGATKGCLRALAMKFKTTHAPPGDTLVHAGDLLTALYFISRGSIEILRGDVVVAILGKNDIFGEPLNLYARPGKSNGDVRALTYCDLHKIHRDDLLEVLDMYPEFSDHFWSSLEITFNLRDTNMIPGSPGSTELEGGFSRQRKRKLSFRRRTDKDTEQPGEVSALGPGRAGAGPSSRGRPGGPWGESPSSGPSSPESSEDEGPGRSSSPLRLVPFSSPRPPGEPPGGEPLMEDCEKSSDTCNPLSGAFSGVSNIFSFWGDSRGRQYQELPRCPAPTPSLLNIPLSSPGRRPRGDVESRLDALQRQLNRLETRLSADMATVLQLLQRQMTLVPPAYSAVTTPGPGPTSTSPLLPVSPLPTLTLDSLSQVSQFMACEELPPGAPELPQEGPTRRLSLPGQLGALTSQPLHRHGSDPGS
Chain of hERG (KCNH2) (Q12809 whole entry): as above

COc1ccc2ccc(=O)n(CCN[C@H]3CC[C@H]4[C@H](C3)OC(=O)N4c3ncc4c(n3)NC(=O)CO4)c2n1
IC50 at 24 h [1]: > 128 µg/mL | MIC (Acinetobacter baumannii): 1 µg/mL (≈ 1.97 µM) | MIC (Klebsiella pneumoniae): 8 µg/mL (≈ 15.8 µM) | MIC (Pseudomonas aeruginosa): 8 µg/mL (≈ 15.8 µM) | MIC (Escherichia coli [2]): 0.5 µg/mL (≈ 0.985 µM) | MIC (Escherichia coli [3]): 0.015 µg/mL (≈ 0.0296 µM) | IC50 [4]: > 32 µM | logD [5]: 0.9

COc1cnc2ccc(=O)n(CCN[C@H]3CC[C@H]4[C@H](C3)OC(=O)N4c3ccc4c(n3)NC(=O)CO4)c2n1
IC50 at 24 h [1]: > 128 µg/mL | MIC (Acinetobacter baumannii): 0.12 µg/mL (≈ 0.236 µM) | MIC (Klebsiella pneumoniae): 2 µg/mL (≈ 3.94 µM) | MIC (Pseudomonas aeruginosa): 1 µg/mL (≈ 1.97 µM) | MIC (Escherichia coli [2]): 0.12 µg/mL (≈ 0.236 µM) | MIC (Escherichia coli [3]): 0.004 µg/mL (≈ 0.00788 µM) | MIC (Staphylococcus aureus): 0.015 µg/mL (≈ 0.0296 µM) | IC50 [4]: 9 µM | logD [5]: 1.37

N#Cc1cnc2ccc(=O)n(CCN[C@H]3CC[C@H]4[C@H](C3)OC(=O)N4c3ccc4c(n3)NC(=O)CO4)c2c1
IC50 (DNA gyrase): 0.09 µM | IC50 [6]: 0.017 µM | IC50 at 24 h [1]: > 128 µg/mL | MIC (Acinetobacter baumannii): 1 µg/mL (≈ 1.99 µM) | MIC (Klebsiella pneumoniae): 8 µg/mL (≈ 16 µM) | MIC (Pseudomonas aeruginosa): 2 µg/mL (≈ 3.99 µM) | MIC (Escherichia coli [2]): 0.25 µg/mL (≈ 0.499 µM) | MIC (Escherichia coli [3]): 0.004 µg/mL (≈ 0.00798 µM) | MIC (Staphylococcus aureus): 0.06 µg/mL (≈ 0.12 µM) | IC50 [4]: > 100 µM | logD [5]: 0.79 | microsomal CLint [7]: 55 µL/min/mg | microsomal CLint [8]: < 3 µL/min/mg | fraction unbound [9]: > 0.3 | IC50 [10]: > 100 µM

O=C1COc2ccc(N3C(=O)O[C@H]4C[C@@H](NCCn5c(=O)ccc6ccc(C(=O)O)cc65)CC[C@@H]43)nc2N1
MIC (Acinetobacter baumannii): > 64 µg/mL | MIC (Klebsiella pneumoniae): > 64 µg/mL | MIC (Pseudomonas aeruginosa): > 64 µg/mL | MIC (Escherichia coli [2]): > 64 µg/mL | MIC (Escherichia coli [3]): 16 µg/mL (≈ 30.8 µM) | MIC (Staphylococcus aureus): > 64 µg/mL | inhibition at 100 µM (hERG (KCNH2)): 33% | logD [5]: < 0.2

N#Cc1cnc2ccc(=O)n(CCCN[C@H]3CC[C@H]4[C@H](C3)OC(=O)N4c3ccc4c(n3)NC(=O)CO4)c2c1
IC50 (DNA gyrase): 0.34 µM | IC50 [6]: 4.24 µM | IC50 at 24 h [1]: > 32 µg/mL | MIC (Acinetobacter baumannii): 2 µg/mL (≈ 3.88 µM) | MIC (Klebsiella pneumoniae): 8 µg/mL (≈ 15.5 µM) | MIC (Pseudomonas aeruginosa): 2 µg/mL (≈ 3.88 µM) | MIC (Escherichia coli [2]): 0.25 µg/mL (≈ 0.485 µM) | MIC (Escherichia coli [3]): 0.015 µg/mL (≈ 0.0291 µM) | MIC (Staphylococcus aureus): 0.5 µg/mL (≈ 0.97 µM) | IC50 [4]: > 100 µM | logD [5]: 0.5 | microsomal CLint [7]: < 3 µL/min/mg | microsomal CLint [8]: < 3 µL/min/mg | solubility kinetic [11]: 86 µM (≈ 44.3 µg/mL) | fraction unbound [9]: > 0.3 | IC50 [10]: > 100 µM | Activity (Escherichia coli [12]): 7.8 10^-8No_unit

O=C1COc2ccc(N3C(=O)O[C@H]4C[C@@H](NCCn5c(=O)cnc6ccc(F)cc65)CC[C@@H]43)nc2N1
IC50 at 24 h [1]: > 64 µg/mL | MIC (Acinetobacter baumannii): 0.03 µg/mL (≈ 0.0607 µM) | MIC (Klebsiella pneumoniae): 8 µg/mL (≈ 16.2 µM) | MIC (Pseudomonas aeruginosa): 4 µg/mL (≈ 8.09 µM) | MIC (Escherichia coli [2]): 0.25 µg/mL (≈ 0.506 µM) | MIC (Escherichia coli [3]): ≤ 0.002 µg/mL | MIC (Staphylococcus aureus): 0.015 µg/mL (≈ 0.0303 µM) | inhibition at 100 µM (hERG (KCNH2)): 33% | logD [5]: 1.58

COc1ccc2ccc(=O)n(CCN[C@H]3CC[C@H]4[C@H](C3)OC(=O)N4c3ccc4c(n3)NC(=O)CS4)c2n1
IC50 (DNA gyrase): 0.105 µM | IC50 [6]: 0.024 µM | IC50 at 24 h [1]: 35 µg/mL (≈ 67 µM) | MIC (Acinetobacter baumannii): 0.015 µg/mL (≈ 0.0287 µM) | MIC (Klebsiella pneumoniae): 2 µg/mL (≈ 3.83 µM) | MIC (Pseudomonas aeruginosa): 1 µg/mL (≈ 1.91 µM) | MIC (Escherichia coli [2]): 0.12 µg/mL (≈ 0.23 µM) | MIC (Escherichia coli [3]): ≤ 0.002 µg/mL | MIC (Staphylococcus aureus): ≤ 0.002 µg/mL | IC50 [4]: 4 µM | logD [5]: 2.58 | microsomal CLint [7]: > 277 µL/min/mg | microsomal CLint [8]: 267 µL/min/mg | solubility kinetic [11]: 54 µM (≈ 28.2 µg/mL) | fraction unbound [9]: 0.09 | IC50 [10]: > 100 µM | MIC (Escherichia coli [13]): 0.06 µg/mL (≈ 0.115 µM)

COc1cnc2ccc(=O)n(CCN[C@H]3CC[C@H]4[C@H](C3)OC(=O)N4c3ccc4c(n3)NC(=O)CO4)c2c1
IC50 (DNA gyrase): 0.22 µM | IC50 [6]: 0.1 µM | IC50 at 24 h [1]: > 128 µg/mL | MIC (Acinetobacter baumannii): 1 µg/mL (≈ 1.97 µM) | MIC (Klebsiella pneumoniae): 8 µg/mL (≈ 15.8 µM) | MIC (Pseudomonas aeruginosa): 2 µg/mL (≈ 3.95 µM) | MIC (Escherichia coli [2]): 0.25 µg/mL (≈ 0.494 µM) | MIC (Escherichia coli [3]): ≤ 0.008 µg/mL | MIC (Staphylococcus aureus): 0.03 µg/mL (≈ 0.0592 µM) | IC50 [4]: 32 µM | logD [5]: 1.36 | microsomal CLint [7]: 62 µL/min/mg | microsomal CLint [8]: 35 µL/min/mg | solubility kinetic [11]: 94 µM (≈ 47.6 µg/mL) | fraction unbound [9]: 0.25 | IC50 [10]: > 100 µM

COc1ccc2ccc(=O)n(CCN[C@@H]3CC[C@@H]4[C@H](C3)OC(=O)N4c3ccc4c(n3)NC(=O)CO4)c2n1
IC50 at 24 h [1]: > 32 µg/mL | MIC (Acinetobacter baumannii): 1 µg/mL (≈ 1.97 µM) | MIC (Klebsiella pneumoniae): 8 µg/mL (≈ 15.8 µM) | MIC (Pseudomonas aeruginosa): 4 µg/mL (≈ 7.9 µM) | MIC (Escherichia coli [2]): 0.25 µg/mL (≈ 0.494 µM) | MIC (Escherichia coli [3]): 0.004 µg/mL (≈ 0.0079 µM) | MIC (Staphylococcus aureus): 0.008 µg/mL (≈ 0.0158 µM) | IC50 [4]: 5 µM | logD [5]: 2 | fraction unbound [14]: 0.873 | fraction unbound [15]: 0.965

COc1ccc2ccc(=O)n(CCN[C@H]3CC[C@H]4[C@H](C3)OC(=O)N4c3ccc4c(n3)NC(=O)CO4)c2c1
IC50 at 24 h [1]: > 64 µg/mL | MIC (Acinetobacter baumannii): 0.06 µg/mL (≈ 0.119 µM) | MIC (Klebsiella pneumoniae): 8 µg/mL (≈ 15.8 µM) | MIC (Pseudomonas aeruginosa): 4 µg/mL (≈ 7.91 µM) | MIC (Escherichia coli [2]): 0.25 µg/mL (≈ 0.495 µM) | MIC (Escherichia coli [3]): 0.03 µg/mL (≈ 0.0593 µM) | MIC (Staphylococcus aureus): 0.008 µg/mL (≈ 0.0158 µM) | inhibition at 100 µM (hERG (KCNH2)): 85% | logD [5]: 2.25

COc1ccc2ccc(=O)n(CCN[C@H]3CC[C@H]4[C@H](C3)OC(=O)N4c3ccc4c(n3)NC(=O)C(C)(C)O4)c2n1
MIC (Acinetobacter baumannii): 1 µg/mL (≈ 1.87 µM) | MIC (Klebsiella pneumoniae): 64 µg/mL (≈ 120 µM) | MIC (Pseudomonas aeruginosa): 32 µg/mL (≈ 59.9 µM) | MIC (Escherichia coli [2]): 2 µg/mL (≈ 3.74 µM) | MIC (Escherichia coli [3]): 0.03 µg/mL (≈ 0.0561 µM) | MIC (Staphylococcus aureus): 0.03 µg/mL (≈ 0.0561 µM) | logD [5]: 2.84

From ChEMBL document CHEMBL5143607, “Discovery and structure-activity relationships of a novel oxazolidinone class of bacterial type II topoisomerase inhibitors” (Bioorg Med Chem Lett, 2022)
